Measured values: patent publication US20190298661A1, “Transdermal Delivery of Phenethylamine Monoamine Releasers” (priority 2016, published 2019)
Read-outs that look alike come from different tables or passages of the source.

Assays:
DAT [1] = test: Release activity of phenethylamine analogs, DAT; assay type: biochemical; conditions: ratio of EC50 values
SERT = SERT (Rattus norvegicus, UniProt P31652); test: Release activity of phenethylamine analogs, SERT; assay type: biochemical
NET = test: Release activity of phenethylamine analogs, NET; assay type: biochemical; conditions: ratio of EC50 values
DAT [2] = biological target: DAT (Rattus norvegicus, UniProt P23977); test: Release activity of phenethylamine analogs, DAT; assay type: biochemical
[3] = In vitro skin permeation study, vertical static Franz-type diffusion cells, 24 h; assay type: in vitro ADME, human; conditions: for flux / flux with 10% lauric acid versus propylene glycol alone: base 20 mg/mL; for calculated passive flux over 24 hours: base form, 40 mg/ml; for percent permeated through the skin within 24 hours: base; for average amount permeated across dermatomed human skin: liquid base form; for flux enhancement compared to propylene glycol only group: base 40 mg/mL
Procedure: To test this prediction, skin permeation studies were conducted with 4-benzylpiperidine, phenmetrazine, and PAL-353 (3-flouroamphetamine) Based on the required dosing and technical capacity of patch technology, one objective was to develop a 24-hour patch. As such, the skin permeation studies were performed for 24 hours using vertical static Franz-type diffusion cells.
The recirculating water bath system was maintained at 37° C. to bring the skin surface temperature to 32° C. Each Franz cell comprised of a donor compartment containing the drug and a receiver compartment containing 1×PBS at pH 7.4 to ensure a diffusion gradient, with human dermatomed skin (described below) clamped between the two compartments. Permeation was followed by detection of drug in the receiver compartment using an alliance HPLC Waters 2695 Separations Module attached to a Waters UV detector system. A prodigy 5 u ODS (2) 150×4.60 mm 5 micron column with mobile phase of acetonitrile and water (0.05% TFA) at a flow rate of 1 mL/min and an injection volume 20 μL, with a retention time of 5.5 min, was detected at 259 nm wavelength. The same permeation and HPLC protocol was followed with 6 Franz cells (n=6) for each condition.
PAL-353 (3-flouroamphetamine) (10 mg/mL in a vehicle suitable for the enhancement technique being used) was placed in the donor compartment of the Franz cell.
The permeation of phenmetrazine and PAL-353 (3-flouroamphetamine) (3-FA) through dermatomed human cadaver skin was further studied using static Franz diffusion cells. Permeated drugs were quantified using a validated HPLC-UV method. The passive permeation of phenmetrazine and 3-FA was evaluated at the concentrations of 10 (phenmetrazine fumarate), 20 (phenmetrazine and 3-FA bases) and 40 (phenmetrazine and 3-FA bases) mg/mL in propylene glycol (PG). Further, the enhancement effect of oleic acid (5% w/w), oleyl alcohol (5% and 10% w/w) and lauric acid (10% w/w) on the permeation of phenmetrazine and 3-FA bases at 20 and 40 mg/mL was investigated.
Chemical permeation enhancers belonging to fatty acid or fatty alcohol group, oleic acid, oleyl alcohol and lauric acid were incorporated to improve the permeation rate of phenmetrazine (40 mg/mL) and 3-flouroamphetamine (20 mg/mL).
Iontophoretic delivery of PAL-353 across dermatomed human skin was also investigated. The donor chamber was filled with 500 μL of PAL-353 solution (10 mg/ml; 54% of saturation solubility) in 10 mM PBS, pH 7.4 containing 25 mM sodium chloride (n=4). The pH of the donor formulation as measured using glass electrode was around 4.0. Anodal iontophoresis was conducted where silver (anode) and silver chloride electrodes (cathode) were placed in the donor chamber and sampling port of the receptor chamber, respectively. It was ensured that there was no contact between the anode and skin in order to avoid skin damage due to high local voltage. The electrodes were then coupled in series to a source of constant current supply (Keithley 2400 Source Meter®, Keithley Instruments Inc., Cleveland, Ohio, USA). A current density of 0.5 mA/cm^2 was applied for 4 h. However, the total duration of the permeation study was 24 h and sampling was done at 0 h, 1 h, 2 h, 3 h, 4 h, 5 h, 6 h, 8 h, 22 h and 24 h.
This study was repeated keeping all the parameters same except that no current was applied (n=4). This group served as the passive control for comparison of the iontophoretic delivery of PAL-353 across human skin. Also, in a separate study, for these two groups, after 4 h, the formulations were removed and current was stopped in the iontophoresis group. Skin resistance was then measured using the procedure explained in section 2.2.3. Results have been presented as mean±SE.
Lag time was calculated as the x-intercept of the extrapolated linear portion of the permeation profiles (cumulative drug permeated/cm^2 plotted against the time). […]

EPIDERM = test: Skin irritation potential of formulations, EPIDERM 3 dimensional model; conditions: two formulations reaching therapeutic flux
Procedure: The skin irritation potential of our formulations were tested using EPIDERM™, which is a 3 dimensional model used to assess skin irritation.

[4] = www.chemspider.com; cited from earlier work
[5] = 100 mg of 2% HPC gel containing 10 mg of drug, 24 h

Chain of SERT (P31652 whole entry): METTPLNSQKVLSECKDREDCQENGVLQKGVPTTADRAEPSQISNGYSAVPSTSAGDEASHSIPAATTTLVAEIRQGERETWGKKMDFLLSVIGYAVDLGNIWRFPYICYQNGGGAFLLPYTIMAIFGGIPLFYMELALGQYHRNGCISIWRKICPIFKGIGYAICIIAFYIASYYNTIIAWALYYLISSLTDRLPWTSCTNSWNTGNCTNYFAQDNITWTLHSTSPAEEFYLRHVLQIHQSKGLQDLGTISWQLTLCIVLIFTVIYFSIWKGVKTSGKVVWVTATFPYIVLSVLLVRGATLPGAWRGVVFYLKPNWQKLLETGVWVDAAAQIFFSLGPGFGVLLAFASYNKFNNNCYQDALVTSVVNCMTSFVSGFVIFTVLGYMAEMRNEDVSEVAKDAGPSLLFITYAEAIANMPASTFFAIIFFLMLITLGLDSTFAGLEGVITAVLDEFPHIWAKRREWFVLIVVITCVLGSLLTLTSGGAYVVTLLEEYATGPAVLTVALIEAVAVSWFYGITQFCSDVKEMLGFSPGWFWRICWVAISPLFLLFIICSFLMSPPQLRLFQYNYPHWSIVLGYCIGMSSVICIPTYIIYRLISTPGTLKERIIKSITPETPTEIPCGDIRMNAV
Chain of DAT (Rattus norvegicus, UniProt P23977) (P23977 whole entry, the tested form may be a part): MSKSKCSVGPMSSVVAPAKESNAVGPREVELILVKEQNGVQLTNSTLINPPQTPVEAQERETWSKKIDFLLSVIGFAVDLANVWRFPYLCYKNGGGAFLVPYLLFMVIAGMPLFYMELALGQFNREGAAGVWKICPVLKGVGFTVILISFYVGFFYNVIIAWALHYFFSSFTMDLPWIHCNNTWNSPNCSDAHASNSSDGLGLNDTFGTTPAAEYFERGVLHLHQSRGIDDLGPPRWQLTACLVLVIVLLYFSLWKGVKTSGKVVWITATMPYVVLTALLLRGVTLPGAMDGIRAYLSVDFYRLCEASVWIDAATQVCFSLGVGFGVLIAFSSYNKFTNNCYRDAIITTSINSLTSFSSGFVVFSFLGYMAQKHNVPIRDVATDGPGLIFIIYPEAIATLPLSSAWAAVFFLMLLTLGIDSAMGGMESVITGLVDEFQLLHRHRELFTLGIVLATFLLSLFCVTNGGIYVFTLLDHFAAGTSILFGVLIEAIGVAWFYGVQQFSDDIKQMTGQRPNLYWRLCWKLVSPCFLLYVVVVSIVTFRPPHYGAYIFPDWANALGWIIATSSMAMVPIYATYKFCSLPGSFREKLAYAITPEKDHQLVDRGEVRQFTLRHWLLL

Molecule: COc1ccc(CC(C)N)cc1 (centres unmarked) [PAL-162]
- SERT/DA (DAT [1]): 0.1
- EC50 (SERT): 63.3 nM
- SERT/NET (NET): 0.4

Molecule: Cc1cccc(CC(C)N)c1 (centres unmarked) [PAL-314]
- SERT/DA (DAT [1]): 6.5
- EC50 (SERT): 218 nM
- SERT/NET (NET): 11.9

Molecule: CC(N)Cc1cccc(C(F)(F)F)c1 (centres unmarked) [PAL-677]
- SERT/DA (DAT [1]): 0.1
- EC50 (SERT): 104 nM
- SERT/NET (NET): 0.6

Molecule: CC(N)Cc1ccc(Cl)cc1 (centres unmarked) [PAL-24]
- SERT/DA (DAT [1]): 0.3
- EC50 (SERT): 21.5 nM
- SERT/NET (NET): 0.9

Molecule: CCc1ccc(CC(C)N)cc1 (centres unmarked) [PAL-335]
- SERT/DA (DAT [1]): 0.1
- EC50 (SERT): 36.1 nM
- SERT/NET (NET): 0.3

Molecule: CC(N)Cc1ccc(C(C)C)cc1 (centres unmarked) [PAL-334]
- EC50 (SERT): 79.2 nM

Molecule: CCc1cccc(CC(C)N)c1 (centres unmarked) [PAL-1386]
- SERT/DA (DAT [1]): 1.3
- EC50 (SERT): 160 nM
- SERT/NET (NET): 1.4

Molecule: CC(N)Cc1cccc(Cl)c1 (centres unmarked) [PAL-304]
- EC50 (DAT [2]): 11.8 nM
- SERT/DA (DAT [1]): 10.2
- EC50 (SERT; read-out: EC50 SERT release): 120 nM
- SERT/NET (NET): 12.8

Molecule: CC(N)Cc1ccc(OC(F)(F)F)cc1 (centres unmarked) [PAL-309]
- SERT/DA (DAT [1]): 0.0
- EC50 (SERT): 82.2 nM
- SERT/NET (NET): 0.2

Molecule: Cc1ccc(CC(C)N)cc1 (centres unmarked) [PAL-313]
- SERT/DA (DAT [1]): 1.2
- EC50 (SERT): 53.4 nM
- SERT/NET (NET): 2.4

Molecule: CC(N)Cc1ccccc1C(F)(F)F (centres unmarked) [PAL-307]
- EC50 (SERT): > 10000 nM

Molecule: CC(N)Cc1cccc(F)c1 (centres unmarked) [PAL-353, 3-fluoroamphetamine]
- SERT/DA (DAT [1]): 80
- EC50 (SERT): 1940 nM
- SERT/NET (NET): 120
- passive permeation over 24 h ([3]; 10 mg/ml in 10 mM PBS, no current): 3.94±0.53 μg/cm^2
- flux enhancement compared to PG alone ([3]; 20 mg/mL, 5% w/w oleic acid, not significant): ~40%
- flux as percent of the control group ([3]; 20 mg/mL, 5% w/w oleyl alcohol in PG): 389%
- flux as percent of the control group ([3]; 20 mg/mL, 10% w/w oleyl alcohol in PG): 370%
- increase of cumulative drug permeation by iontophoresis versus passive ([3]; PBS, 24 h period): 548 fold
- enhancement of skin permeation by ablative laser versus passive ([3]; PG, 24 h): 508 times
- lag time ([3]; anodal iontophoresis, x-intercept of linear portion of permeation profile): around 3.5 h
- flux ([3]; 5% oleic acid in PG): 109.8±17.94 μg/cm^2/h
- flux ([3]; 10% oleyl alcohol in PG): 292.0±31.70 μg/cm^2/h
- flux with 10% lauric acid versus propylene glycol alone ([3]; 10% w/w lauric acid in PG, listed as 3-FA base): did not show significant difference
- flux with 10% lauric acid versus propylene glycol alone ([3]; 10% w/w lauric acid in PG, listed as 3-flouroamphetamine): did not impact the flux at all
- calculated passive flux over 24 hours ([3]; passive): 3784.62±173.52 μg/cm^2
- percent permeated through the skin within 24 hours ([3]; 20 mg/mL in PG, passive): 41.4±1.18%
- percent permeated through the skin within 24 hours ([3]; 40 mg/mL in PG, passive): 74.45±3.43%
- enhancement by maltose microneedles versus control ([3]; hydrochloride in PG, 24 h): 7 fold
- permeation after 24 h, skin pre-treated with maltose microneedles ([3]; hydrochloride, solution in PG): 7.35±4.87 μg/cm^2
- passive permeation after 24 h ([3]; hydrochloride, solution in propylene glycol (control)): 1.03±0.17 μg/cm^2
- passive permeation in PBS compared to PG ([3]; passive): approximately four
- permeation over 24 hours with anodal iontophoresis ([3]; salt form (hydrochloride), 10 mg/ml in PBS, 0.5 mA/cm^2 for 4 h, 24 h): 2159.43±301.14 μg/cm^2
- permeation after skin microporation by ablative laser ([3]; solution in PG, P.L.E.A.S.E. laser, 24 h): 523.24±86.79 μg/cm^2
- predicted skin irritation of formulations reaching therapeutic flux (EPIDERM): irritant

Molecule: Phenmetrazine fumarate [reference compound]
- passive permeation over 24 hours ([3]; 10 mg/mL in propylene glycol): no permeation

Molecule: CC(N)Cc1ccc(F)cc1 (centres unmarked) [PAL-303]
- SERT/DA (DAT [1]): 18.2
- EC50 (SERT): 939 nM
- SERT/NET (NET): 33.5

Molecule: COc1cccc(CC(C)N)c1 (centres unmarked) [PAL-161]
- SERT/DA (DAT [1]): 3.2
- EC50 (SERT): 328 nM
- SERT/NET (NET): 5.7

Molecule: Cc1ccccc1CC(C)N (centres unmarked) [PAL-315]
- SERT/DA (DAT [1]): 7.7
- EC50 (SERT): 973 nM
- SERT/NET (NET): 26.3

Molecule: c1ccc(CC2CCNCC2)cc1 [4-benzylpiperidine, 4-Benzylpiperidine]
- average amount permeated across human dermatomed skin [3, 5]: 1824±425 μg/cm^2
- share of drug permeated across human dermatomed skin [3, 5]: about 18%
- average amount permeated across dermatomed human skin ([3]; 100 μL of 1 mg/ml in PG, passive, 24 h): 33±8 μg/cm^2
- average amount permeated across dermatomed human skin ([3]; 100 μL of 10 mg/ml in PG, passive, 24 h): 288±71 μg/cm^2

Molecule: CC1NCCOC1c1ccccc1 (centres unmarked) [phenmetrazine, Phenmetrazine, reference compound]
- flux increase compared to group without enhancer ([3]; 40 mg/mL, 5% w/w oleyl alcohol in PG): ~10 folds
- efficiency of oleyl alcohol as permeation enhancer over oleic acid ([3]; 40 mg/mL, both enhancers at 5% w/w): 53.4%
- flux enhancement by oleyl alcohol compared to lauric acid ([3]; 40 mg/mL, irrespective of oleyl alcohol concentration): ~240%
- flux enhancement compared to propylene glycol only group ([3]; 5% w/w oleic acid in PG): 7.6 fold
- flux enhancement compared to propylene glycol only group ([3]; 10% w/w lauric acid in PG): 3.4 fold
- flux enhancement compared to propylene glycol only group ([3]; 10% w/w oleyl alcohol in PG): ~10 fold
- flux enhancement compared to propylene glycol only group ([3]; 10% w/w oleyl alcohol in PG, listed as phenmetrazine base): 11.4 fold
- calculated passive flux over 24 hours ([3]; passive): 359.05±82.36 μg/cm^2
- percent permeated through the skin within 24 hours ([3]; 20 mg/mL in PG, passive): 1.86±0.41%
- percent permeated through the skin within 24 hours ([3]; 40 mg/mL in PG, passive): 5.74±1.32%
- predicted skin irritation of formulations reaching therapeutic flux (EPIDERM): irritant

Molecule: C[C@H]1[C@H](c2ccccc2)OCCN1C [phendimetrazine]
- log P [4]: 2.17
